According to the NIST ThermoML archive (doi:10.1021/je060219e):
Values joined by “and” are separate entries in the source; they are usually repeats but may differ in a detail not shown here. Equal values may be shown once.

Test: φn = volume fraction of the nth substance listed
Settings: 101 kPa, Liquid

CCO [ethanol] + O
viscosity
Settings	303.15 K	308.15 K	313.15 K	318.15 K	323.15 K
φ1 = 0.1	0.6791 mPa·s	0.6191 mPa·s	0.5909 mPa·s	0.5763 mPa·s	0.5305 mPa·s
φ1 = 0.2	0.9735 mPa·s	0.871 mPa·s	0.7442 mPa·s	0.6476 mPa·s	0.598 mPa·s
φ1 = 0.3	1.186 mPa·s	0.8816 mPa·s	0.8614 mPa·s	0.797 mPa·s and 0.79 mPa·s	0.698 mPa·s
φ1 = 0.4	1.254 mPa·s	1.147 mPa·s	0.9262 mPa·s	0.8844 mPa·s	0.7081 mPa·s
φ1 = 0.5	1.426 mPa·s	1.216 mPa·s	1.14 mPa·s	0.8776 mPa·s	0.825 mPa·s
